Results on one compound are retold here after patent US8217164B2, “Use of a lactose-derived C-glycoside compound as an agent for activating and regulating cutaneous immunity” (L'Oreal, priority 2006, dated 2012).

The subject of this test is human peripheral blood cells (lymphocyte proliferation). Put plainly: Immunostimulant activity: lymphocyte proliferation by BrdU labelling. It is filed as cell-based. The following applies: 10 to 0.05 mM, 3 days of culture. The method, then: The immunostimulant activity is tested in the following way: human peripheral blood cells are cultured in the presence of an RPMI-type culture medium supplemented with L-glutamine (2 mM), penicillin/streptomycin (50 μg/50 IU/ml) and foetal calf serum (10%). The C-glycoside derivatives are added at various concentrations (10 to 0.05 mM), as is phytohaemagglutinin (PHA at 5*G/ml), a positive control for lymphocyte proliferation.
A general note: Uptake of a labelled nucleoside into DNA is a usual measure of proliferation.

Regarding `CC(=O)C[C@@H]1O[C@H](CO)[C@@H](OC2O[C@H](CO)[C@H](O)[C@H](O)[C@H]2O)[C@H](O)[C@H]1O` (stereo partly shown) [Compound 2], the “human lymphocyte proliferation (immunostimulant activity)” value was “tendency to stimulate human lymphocyte proliferation at all the concentrations tested”.
